Measurements from patent US7754741B2, “Pyridine derivatives as fungicidal compounds” (Bayer Cropscience S.A., priority 2003, dated 2010).

Legend:
Alternaria brassicae = experiment: In vivo test on Alternaria brassicae (leaf spot of crucifers); details: Alternaria brassicae; dose 330 ppm; radish plants sprayed 24 hours before contamination; grading 6 to 7 days after contamination vs control plants; read-out: protection (good (at least 50%) to total)
Protocol: In Vivo Test on Alternaria brassicae (Leaf Spot of crucifers)
(§1) The active ingredient tested is prepared by potter homogenisation in a concentrated suspension type formulation at 100 g/l. This suspension is then diluted with water to obtain the desired active material concentration.
Radish plants (Pernot variety) in starter cups, sown on a 50/50 peat soil-pozzolana substrate and grown at 18-20° C., are treated at the cotyledon stage by spraying with the aqueous suspension described above.
Plants, used as controls, are treated with an aqueous solution not containing the active material.
After 24 hours, the plants are contaminated by spraying them with an aqueous suspension of Alternaria brassicae spores (40,000 spores per cm^3). The spores are collected from a 12-13-day-old culture.
The contaminated radish plants are incubated for 6-7 days at about 18° C., under a humid atmosphere.
Grading is carried out 6 to 7 days after the contamination, in comparison with the control plants.

Pyrenophora teres = experiment: In vivo test on Pyrenophora teres (barley net blotch); details: Pyrenophora teres, 288 h; dose 330 ppm; barley plants sprayed 24 hours before contamination; grading 12 days after contamination vs control plants; read-out: protection (good (at least 50%) to total)
Protocol: In Vivo Test on Pyrenophora teres (Barley Net Blotch)
as §1
(§2) Barley plants (Express variety) in starter cups, sown on a 50/50 peat soil-pozzolana substrate and grown at 12° C., are treated at the 1-leaf stage (10 cm tall) by spraying with the aqueous suspension described above. Plants, used as controls, are treated with an aqueous solution not containing the active material.
After 24 hours, the plants are contaminated by spraying them with an aqueous suspension of Pyrenophora teres spores (12,000 spores per ml). The spores are collected from a 12-day-old culture The contaminated barley plants are incubated for 24 hours at about 20° C. and at 100% relative humidity, and then for 12 days at 80% relative humidity.

Botrytis cinerea = experiment: In vivo test on Botrytis cinerea (cucumber grey mould); details: Botrytis cinerea; dose 330 ppm; cucumber plants sprayed 24 hours before contamination; grading 5/7 days after contamination vs control plants; read-out: protection (good (at least 50%) to total)
Protocol: In Vivo Test on Botrytis cinerea (Cucumber Grey Mould)
as §1
as §2, with “Cucumber” for “Barley”, “(Marketer” for “(Express”, “18-20°” for “12°”, “cotyledon Z11” for “1-leaf”, “stage” for “stage (10 cm tall)”
After 24 hours, the plants are contaminated by depositing drops of an aqueous suspension of Botrytis cinerea spores (150,000 spores per ml) on upper surface of the leaves. The spores are collected from a 15-day-old culture and are suspended in a nutrient solution composed of: • 20 g/L of gelatin • 50 g/L of cane sugar • 2 g/L of NH4NO3 • 1 g/L of KH2PO4
The contaminated cucumber plants are settled for 5/7 days in a climatic room at 15-11° C. (day/night) and at 80% relative humidity.
Grading is carried out 5/7 days after the contamination, in comparison with the control plants. Under these conditions, good (at least 50%) to total protection is observed at a dose of 330 ppm with the following compounds :B-7, B-8, B-13, B-14, C-3, C-12, C-13, C-14, C-15, C-16, D-4, D-5, E-4, H-1, H-2, H-4, H-7, H-9, H-22, J-1, J-2, J-3, J-19, J-31, J-32, J-33, J-34, J-35, J-37, J-39, J-43, J-44, R-1, R-10, R-23, R-24, R-26, R-31, V-1, V-8.

Cc1ccoc1C(=O)NCCc1ncc(C(F)(F)F)cc1Cl [Compound A-3]
pest or weed control at 330 ppm (Alternaria brassicae): ≥ 50%

O=C(NCCc1ncc(C(F)(F)F)cc1Cl)c1cc(-c2ccc(Cl)cc2)oc1C(F)(F)F [Compound B-2]
pest or weed control at 330 ppm (Alternaria brassicae): ≥ 50%

O=C(NCCc1ncc(C(F)(F)F)cc1Cl)c1ccoc1 [Compound B-3]
pest or weed control at 330 ppm (Pyrenophora teres): ≥ 50%

Cc1oc(-c2ccccc2)cc1C(=O)NCCc1ncc(C(F)(F)F)cc1Cl [Compound B-5]
pest or weed control at 330 ppm (Alternaria brassicae): ≥ 50%

O=C(NCCc1ncc(C(F)(F)F)cc1Cl)c1cc(-c2cccc(Cl)c2)oc1C(F)(F)F [Compound B-9]
pest or weed control at 330 ppm (Alternaria brassicae): ≥ 50%

O=C(NCCc1ncc(C(F)(F)F)cc1Cl)c1cc(-c2ccccc2)oc1C(F)(F)F [Compound B-10]
pest or weed control at 330 ppm (Alternaria brassicae): ≥ 50%

O=C(c1ccoc1I)N(CCc1ncc(C(F)(F)F)cc1Cl)C1CC1 [Compound B-15]
pest or weed control at 330 ppm (Pyrenophora teres): ≥ 50%

Cc1cc(C(=O)NCCc2nc(C)c(Cl)cc2Cl)c(C)o1 [Compound B-16]
pest or weed control at 330 ppm (Alternaria brassicae): ≥ 50%
pest or weed control at 330 ppm (Pyrenophora teres): ≥ 50%

O=C(NCCc1ncc(C(F)(F)F)cc1Cl)c1sccc1Br [Compound C-5]
pest or weed control at 330 ppm (Alternaria brassicae): ≥ 50%
pest or weed control at 330 ppm (Pyrenophora teres): ≥ 50%

O=C(NCCc1ncc(C(F)(F)F)cc1Cl)c1ccc(-c2ccccn2)s1 [Compound C-6]
pest or weed control at 330 ppm (Alternaria brassicae): ≥ 50%

CS(=O)(=O)c1csc(C(=O)NCCc2ncc(C(F)(F)F)cc2Cl)c1Cl [Compound C-8]
pest or weed control at 330 ppm (Alternaria brassicae): ≥ 50%

O=C(NCCc1ncc(Cl)cc1F)c1sccc1I [Compound C-15]
pest or weed control at 330 ppm (Botrytis cinerea): ≥ 50%
pest or weed control at 330 ppm (Pyrenophora teres): ≥ 50%

O=C(NCCc1ccc(Cl)cn1)c1sccc1I [Compound C-17]
pest or weed control at 330 ppm (Pyrenophora teres): ≥ 50%

O=C(NCCc1nc(Cl)ccc1Cl)c1sccc1I [Compound C-18]
pest or weed control at 330 ppm (Alternaria brassicae): ≥ 50%

O=C(c1sccc1I)N(CCc1ncc(C(F)(F)F)cc1Cl)C1CC1 [Compound C-20]
pest or weed control at 330 ppm (Pyrenophora teres): ≥ 50%

Cc1nc(CCNC(=O)c2sccc2I)c(Cl)cc1Cl [Compound C-21]
pest or weed control at 330 ppm (Alternaria brassicae): ≥ 50%

O=C(NCCc1nc(F)c(Cl)cc1Cl)c1sccc1I [Compound C-22]
pest or weed control at 330 ppm (Pyrenophora teres): ≥ 50%

O=C(NCCc1nc(F)c(Cl)cc1F)c1sccc1I [Compound C-23]
pest or weed control at 330 ppm (Alternaria brassicae): ≥ 50%
pest or weed control at 330 ppm (Pyrenophora teres): ≥ 50%

Cn1ccc(I)c1C(=O)NCCc1ncc(C(F)(F)F)cc1Cl [Compound F-3]
pest or weed control at 330 ppm (Alternaria brassicae): ≥ 50%
pest or weed control at 330 ppm (Pyrenophora teres): ≥ 50%

O=C(NCCc1ncc(C(F)(F)F)cc1Cl)c1ncoc1-c1ccccc1 [Compound G-1]
pest or weed control at 330 ppm (Alternaria brassicae): ≥ 50%
pest or weed control at 330 ppm (Pyrenophora teres): ≥ 50%

Cc1cc(C(=O)NCCc2ncc(C(F)(F)F)cc2Cl)nn1C(C)(C)C [Compound I-1]
pest or weed control at 330 ppm (Alternaria brassicae): ≥ 50%
pest or weed control at 330 ppm (Pyrenophora teres): ≥ 50%

O=C(NCCc1ncc(C(F)(F)F)cc1Cl)c1cnn(-c2ccccc2)c1C(F)(F)F [Compound J-4]
pest or weed control at 330 ppm (Alternaria brassicae): ≥ 50%

O=C(NCCc1ncc(C(F)(F)F)cc1Cl)c1cnn(-c2ccc(Cl)cc2)c1C(F)(F)F [Compound J-5]
pest or weed control at 330 ppm (Alternaria brassicae): ≥ 50%

Cn1ncc(C(=O)NCCc2ncc(C(F)(F)F)cc2Cl)c1Cl [Compound J-6]
pest or weed control at 330 ppm (Alternaria brassicae): ≥ 50%

Cc1c(C(=O)NCCc2ncc(C(F)(F)F)cc2Cl)cnn1-c1ccc(F)cc1 [Compound J-7]
pest or weed control at 330 ppm (Pyrenophora teres): ≥ 50%

COc1ccc(-n2ncc(C(=O)NCCc3ncc(C(F)(F)F)cc3Cl)c2C)cc1 [Compound J-8]
pest or weed control at 330 ppm (Pyrenophora teres): ≥ 50%

Cc1ccccc1-n1ncc(C(=O)NCCc2ncc(C(F)(F)F)cc2Cl)c1C [Compound J-10]
pest or weed control at 330 ppm (Pyrenophora teres): ≥ 50%

CCCc1c(C(=O)NCCc2ncc(C(F)(F)F)cc2Cl)cnn1-c1ccc(Cl)cc1 [Compound J-12]
pest or weed control at 330 ppm (Alternaria brassicae): ≥ 50%

O=C(NCCc1ncc(C(F)(F)F)cc1Cl)c1cnn(-c2ccc([N+](=O)[O-])cc2)c1C(F)(F)F [Compound J-13]
pest or weed control at 330 ppm (Alternaria brassicae): ≥ 50%

Cn1cc(C(=O)N(CCc2ncc(C(F)(F)F)cc2Cl)C2CC2)c(C(F)(F)F)n1 [Compound J-23]
pest or weed control at 330 ppm (Pyrenophora teres): ≥ 50%

Cn1cc(C(=O)NCCc2ccc(C(F)(F)F)c(Cl)n2)c(C(F)(F)F)n1 [Compound J-24]
pest or weed control at 330 ppm (Alternaria brassicae): ≥ 50%
pest or weed control at 330 ppm (Pyrenophora teres): ≥ 50%

Cc1nc(CCNC(=O)c2cn(C)nc2C(F)(F)F)c(Cl)cc1Cl [Compound J-25]
pest or weed control at 330 ppm (Alternaria brassicae): ≥ 50%
pest or weed control at 330 ppm (Pyrenophora teres): ≥ 50%

Cn1cc(C(=O)NCCc2nc(F)c(Cl)cc2Cl)c(C(F)(F)F)n1 [Compound J-26]
pest or weed control at 330 ppm (Alternaria brassicae): ≥ 50%
pest or weed control at 330 ppm (Pyrenophora teres): ≥ 50%

Cn1cc(C(=O)NCCc2ccc(Cl)cn2)c(C(F)F)n1 [Compound J-36]
pest or weed control at 330 ppm (Alternaria brassicae): ≥ 50%
pest or weed control at 330 ppm (Pyrenophora teres): ≥ 50%

CC(C)ON=CCc1cnc(CCNC(=O)c2cn(C)nc2C(F)F)c(Cl)c1 [Compound J-38]
pest or weed control at 330 ppm (Alternaria brassicae): ≥ 50%

Cc1nn(C)c(F)c1C(=O)NCCc1ncc(Cl)cc1F [Compound J-49]
pest or weed control at 330 ppm (Alternaria brassicae): ≥ 50%
pest or weed control at 330 ppm (Pyrenophora teres): ≥ 50%

Cc1nn(C)c(F)c1C(=O)NCCc1nc(Cl)c(Cl)cc1Cl [Compound J-50]
pest or weed control at 330 ppm (Alternaria brassicae): ≥ 50%
pest or weed control at 330 ppm (Pyrenophora teres): ≥ 50%

Cc1nn(C)c(F)c1C(=O)N(CCc1ncc(C(F)(F)F)cc1Cl)C1CC1 [Compound J-52]
pest or weed control at 330 ppm (Alternaria brassicae): ≥ 50%
pest or weed control at 330 ppm (Pyrenophora teres): ≥ 50%

Cn1cc(C(=O)NCCc2ncc(C(F)(F)F)cc2Cl)c(C(F)(F)F)n1 [Compound J-54]
pest or weed control at 330 ppm (Pyrenophora teres): ≥ 50%

CC(C)(C)c1cc(C(=O)NCCc2ncc(C(F)(F)F)cc2Cl)n(Cc2ccccc2)n1 [Compound K-3]
pest or weed control at 330 ppm (Alternaria brassicae): ≥ 50%

O=C(NCCc1ncc(C(F)(F)F)cc1Cl)c1ccnn1-c1ccccc1 [Compound K-5]
pest or weed control at 330 ppm (Alternaria brassicae): ≥ 50%

CCn1nc(C)c(Br)c1C(=O)NCCc1ncc(C(F)(F)F)cc1Cl [Compound K-6]
pest or weed control at 330 ppm (Alternaria brassicae): ≥ 50%
pest or weed control at 330 ppm (Pyrenophora teres): ≥ 50%

Cc1noc(C)c1C(=O)NCCc1ncc(C(F)(F)F)cc1Cl [Compound M-2]
pest or weed control at 330 ppm (Alternaria brassicae): ≥ 50%

Cc1onc(-c2ccccc2Cl)c1C(=O)NCCc1ncc(C(F)(F)F)cc1Cl [Compound M-4]
pest or weed control at 330 ppm (Alternaria brassicae): ≥ 50%
pest or weed control at 330 ppm (Pyrenophora teres): ≥ 50%

O=C(NCCc1ncc(C(F)(F)F)cc1Cl)c1ccno1 [Compound N-1]
pest or weed control at 330 ppm (Alternaria brassicae): ≥ 50%

Cc1nn(-c2ccccc2)nc1C(=O)NCCc1ncc(C(F)(F)F)cc1Cl [Compound O-1]
pest or weed control at 330 ppm (Alternaria brassicae): ≥ 50%

Cc1nnsc1C(=O)NCCc1ncc(C(F)(F)F)cc1Cl [Compound P-1]
pest or weed control at 330 ppm (Pyrenophora teres): ≥ 50%

O=C(NCCc1ncc(C(F)(F)F)cc1Cl)c1ncc(C(F)(F)F)cc1Cl [Compound Q-1]
pest or weed control at 330 ppm (Alternaria brassicae): ≥ 50%

O=C(NCCc1ncc(C(F)(F)F)cc1Cl)c1nc(Cl)ccc1Cl [Compound Q-2]
pest or weed control at 330 ppm (Alternaria brassicae): ≥ 50%

O=C(NCCc1ncc(C(F)(F)F)cc1Cl)c1cccnc1 [Compound R-5]
pest or weed control at 330 ppm (Alternaria brassicae): ≥ 50%

O=C(NCCc1ncc(C(F)(F)F)cc1Cl)c1cccnc1Sc1ccccc1 [Compound R-6]
pest or weed control at 330 ppm (Alternaria brassicae): ≥ 50%

O=C(NCCc1ncc(C(F)(F)F)cc1Cl)c1cccnc1Oc1ccc(Cl)cc1 [Compound R-7]
pest or weed control at 330 ppm (Alternaria brassicae): ≥ 50%

Cc1nc(C(F)(F)F)ccc1C(=O)NCCc1ncc(C(F)(F)F)cc1Cl [Compound R-15]
pest or weed control at 330 ppm (Alternaria brassicae): ≥ 50%
pest or weed control at 330 ppm (Pyrenophora teres): ≥ 50%

O=C(NCCc1ncc(Cl)cc1F)c1cccnc1Cl [Compound R-24]
pest or weed control at 330 ppm (Alternaria brassicae): ≥ 50%
pest or weed control at 330 ppm (Botrytis cinerea): ≥ 50%

Cc1cc(C(=O)NCCc2ncc(C(F)(F)F)cc2Cl)cc(Cl)n1 [Compound S-2]
pest or weed control at 330 ppm (Alternaria brassicae): ≥ 50%
pest or weed control at 330 ppm (Pyrenophora teres): ≥ 50%

O=C(NCCc1ncc(C(F)(F)F)cc1Cl)c1ccnc(Cl)c1 [Compound S-5]
pest or weed control at 330 ppm (Alternaria brassicae): ≥ 50%
